The target in the experiment is factor Xa (Bos taurus, UniProt P00743). Kind of experiment: kinetic amidolytic. It counts as biochemical.

Where only a bound is given, the exact number is not on record here.

factor Xa, sequence (P00743 41-180): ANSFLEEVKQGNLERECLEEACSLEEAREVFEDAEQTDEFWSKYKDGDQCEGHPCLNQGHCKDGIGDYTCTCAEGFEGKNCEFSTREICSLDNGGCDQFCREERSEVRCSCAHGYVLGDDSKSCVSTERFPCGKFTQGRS
factor Xa, sequence (P00743 234-492): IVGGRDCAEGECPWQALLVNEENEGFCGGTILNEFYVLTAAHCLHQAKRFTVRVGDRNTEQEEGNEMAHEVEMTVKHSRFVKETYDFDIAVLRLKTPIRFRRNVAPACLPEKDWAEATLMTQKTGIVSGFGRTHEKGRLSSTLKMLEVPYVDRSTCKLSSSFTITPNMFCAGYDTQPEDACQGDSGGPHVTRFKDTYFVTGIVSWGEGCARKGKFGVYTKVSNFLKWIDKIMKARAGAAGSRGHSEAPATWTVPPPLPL

Broadly, the IC50 is the midpoint of a concentration-inhibition curve. A lower IC50 goes with greater potency. Turning to `COc1ccc(NC(=O)c2ccc(C(=N)N(C)C)cc2)c(C(=O)Nc2ccc(Cl)cn2)c1` [betrixaban], the IC50 is > 2.88 µM.

Source of the values: article PMC6714992 (Clinical and Applied Thrombosis/Hemostasis, 2019).
